Experimental data taken from patent US9567339B2, “Primary carboxamides as BTK inhibitors” (AbbVie Inc., priority 2013, dated 2017).

Target: BTK, recombinant human catalytic domain (aa 393-659) (Homo sapiens (Human), UniProt Q06187)
Experiment: In vitro BTK kinase activity measured by time-resolved fluorescence resonance energy transfer (trFRET)
Assay type: biochemical
Details: read-out: Btk IC50

Sequence of BTK, recombinant human catalytic domain (aa 393-659) (Q06187 393-659): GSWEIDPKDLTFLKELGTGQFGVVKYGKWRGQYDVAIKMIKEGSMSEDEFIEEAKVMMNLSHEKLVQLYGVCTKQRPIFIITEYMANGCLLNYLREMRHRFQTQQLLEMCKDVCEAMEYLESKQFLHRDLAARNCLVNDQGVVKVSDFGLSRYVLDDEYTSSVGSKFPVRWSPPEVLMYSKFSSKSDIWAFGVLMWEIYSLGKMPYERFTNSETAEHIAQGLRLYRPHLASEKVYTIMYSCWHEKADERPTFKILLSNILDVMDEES

| IC50 | Structure (SMILES) |
| --- | --- |
| < 0.1 µM | C=CC(=O)Nc1cc(-c2ccc(C(N)=O)c3[nH]ccc23)ccc1C [E.1.25] |
| 0.1 to 1 µM | Cn1cc(-c2cc3c(N4CCC[C@@H](NC(=O)c5ccc(C(C)(C)C(N)=O)cc5)C4)ccc(C(N)=O)c3[nH]2)cn1 [O.1.23*] |
| 0.1 to 1 µM | C=CC(=O)N1CCC[C@@H](c2cnc(C(N)=O)c3[nH]ccc23)C1 [E.9.51] |
| 0.1 to 1 µM | C=CC(=O)Nc1cc(-c2ccc(C(N)=O)c3[nH]ccc23)ccc1OC [E.1.8] |
| 1 to 10 µM | C=CC(=O)Nc1cc(OCc2nccs2)ccc1-c1ccc(C(N)=O)c2[nH]ccc12 [E.1.16] |
| < 0.1 µM | Cc1c(NC(=O)C2CCCCC2)cccc1-c1ccc(C(N)=O)c2[nH]c(C3=CCN(S(C)(=O)=O)CC3)cc12 [D.7.29] |
| 1 to 10 µM | C=CC(=O)N(CC1CCCC1)c1cccc(-c2ccc(C(N)=O)c3[nH]ccc23)c1 [E.1.34, 4-(3-(N-(cyclopentylmethyl)acrylamido)phenyl)-1H-indole-7-carboxamide] |
| < 0.1 µM | Cc1c(NC(=O)COc2cccnn2)cccc1-c1ccc(C(N)=O)c2[nH]c(C3=CCN(S(C)(=O)=O)CC3)cc12 [D.7.28] |
| 0.1 to 1 µM | C=CC(=O)N1CCOC[C@H](c2cnc(C(N)=O)c3[nH]ccc23)C1 [Example 3.2] |
| < 0.1 µM | C=CC(=O)N1CC(N(C)c2ccc(C(N)=O)c3[nH]c(-c4ccc(N5CCOCC5)nc4)cc23)C1 [E.9.10] |
| < 0.1 µM | Cn1cc(-c2cc3c(N4CCC[C@@H](NC(=O)c5ccc(C6CC6)cc5)C4)ccc(C(N)=O)c3[nH]2)cn1 [O.1.25*] |
| < 0.1 µM | C=CC(=O)N[C@@H]1CC[C@@H](c2ccc(C(N)=O)c3[nH]ccc23)C1 [E.9.50] |
| < 0.1 µM | Cc1c(NCc2nccs2)cccc1-c1ccc(C(N)=O)c2[nH]c(C3=CCN(S(C)(=O)=O)CC3)cc12 [H.2.1, 4-(2-methyl-3-(thiazol-2-ylmethylamino)phenyl)-2-(1-(methylsulfonyl)-1,2,3,6-tetrahydropyridin-4-yl)-1H-indole-7-carboxamide] |
| < 0.1 µM | C=CC(=O)N1CC(Nc2cnc(C(N)=O)c3[nH]ccc23)C1 [E.9.34] |
| < 0.1 µM | Cc1nc(C(=O)NC2CCCN(c3ccc(C(N)=O)c4[nH]c(C5=CCN(S(C)(=O)=O)CC5)cc34)C2)co1 (stereo not drawn) [O.1.5*] |
| 0.1 to 1 µM | C=CC(=O)Nc1cc(-c2ccc(C(N)=O)c3[nH]ccc23)ccc1OCc1nccs1 [E.1.13] |

| IC50 | Structure (SMILES) |
| --- | --- |
| 1 to 10 µM | Cc1c(NC(=O)/C=C/CN2CCN(C)CC2)cccc1-c1ccc(C(N)=O)c2[nH]ccc12 [J.1.6] |
| < 0.1 µM | C=CC(=O)Nc1cccc(-c2ccc(C(N)=O)c3[nH]c(C=C)cc23)c1 [E.1.18] |
| < 0.1 µM | C=CC(=O)N1CC(N(C)c2ccc(C(N)=O)c3[nH]c(C)cc23)C1 [E.9.25] |
| < 0.1 µM | Cc1c(NC(=O)CC#N)cccc1-c1ccc(C(N)=O)c2[nH]c(C3=CCN(S(C)(=O)=O)CC3)cc12 [D.7.4] |
| < 0.1 µM | C=CC(=O)Nc1ccc(F)c(-c2ccc(C(N)=O)c3[nH]ccc23)c1F [E.1.20] |
| < 0.1 µM | C=CC(=O)N1CC(N(C)c2ccc(C(N)=O)c3[nH]c(C4CCOC4)cc23)C1 (stereo not drawn) [E.9.21] |
| < 0.1 µM | C/C=C/C(=O)Nc1cccc(-c2ccc(C(N)=O)c3[nH]c(C4=CCN(S(C)(=O)=O)CC4)cc23)c1C [D.7.9] |
| < 0.1 µM | Cc1cnc(C(=O)Nc2cccc(-c3ccc(C(N)=O)c4[nH]c(C5=CCN(S(C)(=O)=O)CC5)cc34)c2C)s1 [D.7.32] |
| 1 to 10 µM | C=CC(=O)Nc1cc(OCc2ccccc2)ccc1-c1ccc(C(N)=O)c2[nH]ccc12 [E.1.17] |
| 0.1 to 1 µM | C=CC(=O)Nc1cccc(-c2ccc(C(N)=O)c3[nH]ccc23)c1OC [E.1.30] |
| < 0.1 µM | C=CC(=O)N1CCC[C@H](c2ccc(C(N)=O)c3[nH]c(-c4cnn(C)c4)cc23)C1 [Example 4.2] |
| < 0.1 µM | Cc1c(NC(=O)CCN2CCCC2)cccc1-c1ccc(C(N)=O)c2[nH]c(C3=CCN(S(C)(=O)=O)CC3)cc12 [D.7.12] |
| < 0.1 µM | C=CC(=O)N1CC(N(C)c2ccc(C(N)=O)c3[nH]c([C@@H]4CCOC4)cc23)C1 [Example 5.1] |
| 1 to 10 µM | Cc1c(NC2COC2)cccc1-c1ccc(C(N)=O)c2[nH]ccc12 [O.1.2] |
| 1 to 10 µM | NC(=O)c1ccc(N2CCC[C@@H](n3cnc4ccc(F)cc4c3=O)C2)c2cc(-c3ccc(F)cc3)[nH]c12 [O.1.15*] |
| < 0.1 µM | C/C=C(/C)C(=O)Nc1cccc(-c2ccc(C(N)=O)c3[nH]c(C4=CCN(S(C)(=O)=O)CC4)cc23)c1C [D.7.1] |

Same assay, conditions: trFRET, 0.001 mM ATP, biotin-TYR1 peptide substrate; read-out: Btk IC50

| IC50 | Structure (SMILES) |
| --- | --- |
| < 0.1 µM | C=CC(=O)Nc1cccc(-c2ccc(C(N)=O)c3[nH]c(-c4ccc(C(=O)N5CCCC5)cc4)cc23)c1C [A.1.38] |
| < 0.1 µM | NC(=O)c1ccc(-c2cccnc2)c2cc(-c3ccc(F)cc3)[nH]c12 [A.9.2] |
| 0.1 to 1 µM | COCCNC(=O)/C=C\C(=O)Nc1cccc(-c2ccc(C(N)=O)c3[nH]ccc23)c1 [D.9.1] |
| 1 to 10 µM | CC#CC(=O)Nc1c[nH]c2c(C(N)=O)ccc(-c3cccc(NC(=O)c4nccs4)c3C)c12 [D.3.5] |
| 0.1 to 1 µM | C=C(C(=O)Nc1cccc(-c2ccc(C(N)=O)c3[nH]ccc23)c1C)c1ccccc1 [D.8.7] |
| 0.1 to 1 µM | Cc1ccc(-c2cc3c(-c4ccn[nH]4)ccc(C(N)=O)c3[nH]2)cc1 [A.8.1] |
| 0.1 to 1 µM | Cc1c(-c2ccc(C(N)=O)c3[nH]c(-c4cncnc4)cc23)cccc1-n1cnc2ccc(F)cc2c1=O [A.13.2] |
| < 0.1 µM | Cc1c(NC2COC2)cccc1-c1ccc(C(N)=O)c2[nH]c(C3=CCN(S(C)(=O)=O)CC3)cc12 [A.4.11] |
| < 0.1 µM | C=CC(=O)Nc1cccc(-c2ccc(C(N)=O)c3[nH]c(-c4ccc(N5CCOCC5)nc4)cc23)c1C [A.1.30] |
| < 0.1 µM | C=CC(=O)Nc1cccc(-c2ccc(C(N)=O)c3[nH]c(-c4cccc(NC(C)=O)c4)cc23)c1C [A.1.15] |
| < 0.1 µM | Cc1c(-c2ccc(C(N)=O)c3[nH]c(C4=CCN(S(C)(=O)=O)CC4)cc23)cccc1N(C(=O)c1ccc(C(F)F)cc1)C1COC1 [A.4.12] |
| < 0.1 µM | C=CC(=O)Nc1cccc(-c2ccc(C(N)=O)c3[nH]c(C)cc23)c1 [Example 19, 4-(3-Acrylamidophenyl)-2-methyl-1H-indole-7-carboxamide] |
| < 0.1 µM | C=CC(=O)Nc1cccc(-c2ccc(C(N)=O)c3[nH]c(-c4ccc(S(C)(=O)=O)cc4)cc23)c1C [A.1.40] |
| < 0.1 µM | C=CS(=O)(=O)Nc1cccc(-c2ccc(C(N)=O)c3[nH]ccc23)c1 [I.1, 4-(3-(Vinylsulfonamido)phenyl)-1H-indole-7-carboxamide] |
| 0.1 to 1 µM | Cc1c(NC(=O)/C=C/c2nccs2)cccc1-c1ccc(C(N)=O)c2[nH]ccc12 [D.8.5] |
| 1 to 10 µM | C/C=C/C(=O)NCc1ccccc1-c1cc2c(-c3cccc(NC(=O)c4nccs4)c3C)ccc(C(N)=O)c2[nH]1 [D.1.9] |
| 0.1 to 1 µM | C=CC(=O)N1CCc2cc(C(N)=O)c3[nH]ccc3c21 [Example 4, 1-Acryloyl-1,2,3,6-tetrahydropyrrolo[2,3-e]indole-5-carboxamide] |
| 0.1 to 1 µM | Cc1c(-c2ccc(C(N)=O)c3[nH]c(-c4cncnc4)cc23)cccc1-n1cnc2ccccc2c1=O [A.13.1] |
| < 0.1 µM | Cc1c(NC(=O)c2nccs2)cccc1-c1ccc(C(N)=O)c2[nH]c(-c3ccc(=O)n(C)c3)cc12 [A.2.1] |

| IC50 | Structure (SMILES) |
| --- | --- |
| < 0.1 µM | Cc1c(-c2ccc(C(N)=O)c3[nH]c(-c4cnn(C)c4)cc23)cccc1-n1cnc2ccc(F)cc2c1=O [A.10.2] |
| < 0.1 µM | C=CC(=O)N[C@@H]1CCC[C@H](c2ccc(C(N)=O)c3[nH]ccc23)C1 (relative stereo) [Example 8, 4-(cis-3-Acrylamidocyclohexyl)-1H-indole-7-carboxamide] |
| < 0.1 µM | CS(=O)(=O)N1CC=C(c2cc3c(N4CCC[C@@H](NC(=O)c5nccs5)C4)ccc(C(N)=O)c3[nH]2)CC1 [Example 13A, (R)—N-(1-(7-Carbamoyl-2-(1-(methylsulfonyl)-1,2,3,6-tetrahydropyridin-4-yl)-1H-indol-4-yl)piperidin-3-yl)thiazole-2-carboxamide] |
| < 0.1 µM | CS(=O)(=O)N1CC=C(c2cc3c(-c4cccc(OCc5nccs5)c4)ccc(C(N)=O)c3[nH]2)CC1 [A.4.4] |
| < 0.1 µM | Cc1c(-c2ccc(C(N)=O)c3[nH]c(-c4cccnc4)cc23)cccc1-n1cnc2ccccc2c1=O [A.7.2] |
| 0.1 to 1 µM | C=CC(=O)N1CCCC(c2ccc(C(N)=O)c3[nH]ccc23)C1 (stereo not drawn) [Example 25, 4-(1-Acryloylpiperidin-3-yl)-1H-indole-7-carboxamide] |
| < 0.1 µM | C=CC(=O)Nc1cccc(-c2ccc(C(N)=O)c3[nH]c(-c4cccc(C(N)=O)c4)cc23)c1C [A.1.25] |
| 0.1 to 1 µM | Cc1noc(C)c1-c1ccc(C(N)=O)c2[nH]c(-c3ccc(F)cc3)cc12 [A.9.3] |
| < 0.1 µM | C=CC(=O)N[C@H]1CC[C@H](c2ccc(C(N)=O)c3[nH]ccc23)C1 (relative stereo) [Example 11, 4-(trans-3-Acrylamidocyclopentyl)-1H-indole-7-carboxamide] |
| 0.1 to 1 µM | Cc1c(NC(=O)/C=C/C(C)C)cccc1-c1ccc(C(N)=O)c2[nH]ccc12 [D.8.8] |
| < 0.1 µM | CC(=O)N1CC=C(c2cc3c(-c4cccc(NC(=O)c5ccc(C(F)F)cc5)c4C)ccc(C(N)=O)c3[nH]2)CC1 [A.3.7, 2-(1-acetyl-1,2,3,6-tetrahydropyridin-4-yl)-4-(3-(4-(difluoromethyl)benzamido)-2-methylphenyl)-1H-indole-7-carboxamide] |
| 0.1 to 1 µM | CC(=O)N1CCC(c2cc3c(-c4cccc(NC(=O)c5ccc(C6CC6)cc5)c4C)ccc(C(N)=O)c3[nH]2)CC1 [D.5.1] |
| < 0.1 µM | C=CC(=O)Nc1cccc(-c2ccc(C(N)=O)c3[nH]c(-c4ccc(C(=O)N5CCN(C)CC5)cc4)cc23)c1C [A.1.39] |
| < 0.1 µM | C=CC(=O)Nc1cccc(-c2ccc(C(N)=O)c3[nH]c(-c4ccc(C(N)=O)cc4)cc23)c1C [A.1.45] |
| 1 to 10 µM | CC(=O)Nc1cccc(-c2ccc(C(N)=O)c3[nH]ccc23)c1C [D.8.12] |
| 1 to 10 µM | CNc1cccc(-c2ccc(C(N)=O)c3[nH]ccc23)c1 [A.6.2] |
| < 0.1 µM | C=CC(=O)Nc1cccc(-c2ccc(C(N)=O)c3[nH]c(-c4ccc5c(c4)CCO5)cc23)c1C [A.1.21] |
| 1 to 10 µM | Cc1c(N)cccc1-c1cnc(C(N)=O)c2[nH]ccc12 [Example 2, 4-(3-Amino-2-methylphenyl)-1H-pyrrolo[2,3-c]pyridine-7-carboxamide] |
